Data reported in patent US12630506B2, “Direct thrombin inhibitors and methods of use thereof” (Baylor College of Medicine, priority 2020, dated 2026).

Biological target: Thrombin (Homo sapiens, UniProt P00734)
Assay: Thrombin inhibition in vitro (Kiapp)
Type: biochemical
Protocol: The inhibitory potency of Compound 1 on thrombin was tested in vitro.

Ki (in vitro, FIG. 1, read-out: inhibition constant (thrombin)): 1 nM
potency relative to argatroban (thrombin inhibition) (ratio of inhibition constants vs argatroban): about 10 fold
SMILES: CNC(=O)[C@@H]1CN(C(=O)[C@H](Cc2ccccc2CNC(=N)N)NC(=O)N(C)[C@H]2CCOc3ccccc32)C[C@H]1c1ccc(OC)cc1 [Compound 1]
